In the supplement of paper PMC8882468:

tested on: HCI-024 (organoid from a breast cancer xenograft); assay: CTG-3D luminescence at 96 h relative to day-0 seeding control (ratio to day 0); higher = more growth / less cytotoxicity; PDxO 3D drug screen, 96 h, CTG-3D normalised to day-0 seeding control.; settings: 0.00025 µM; days in culture: 105

Compared with `CC(C)(C(=O)NCC(F)(F)C(F)(F)F)C(=O)N[C@@H]1C(=O)Nc2ccccc2-c2ccccc21`, `O=C(/C=C/c1cccnc1)NCCCCC1CCN(C(=O)c2ccccc2)CC1` [FK866] is higher in “CTG-3D luminescence at 96 h” value: 1.33 for the first, 1.72 for the second.

Going from `CCN(c1cc(C#CCN2CCOCC2)cc(C(=O)NCc2c(C)cc(C)[nH]c2=O)c1C)[C@H]1CC[C@H](N(C)CCOC)CC1` to `CCc1c2c(nc3ccc(O)cc13)-c1cc3c(c(=O)n1C2)COC(=O)[C@]3(O)CC` [SN-38], the “CTG-3D luminescence at 96 h” value falls from 1.62 to 1.42.

First: NC(=O)Nc1cc(-c2cccc(F)c2)sc1C(=O)N[C@H]1CCCNC1 [AZD7762]
Second: C=CCn1c(=O)c2cnc(Nc3ccc(N4CCN(C)CC4)cc3)nc2n1-c1cccc(C(C)(C)O)n1 [adavosertib]
The “CTG-3D luminescence at 96 h” value of the first is lower: 1.48 for the first, 1.66 for the second.

In the case of `CCN1CCN(Cc2ccc(Nc3ncc(F)c(-c4cc(F)c5nc(C)n(C(C)C)c5c4)n3)nc2)CC1` [abemaciclib], the “CTG-3D luminescence at 96 h” value was 1.33.

same assay, conditions: 0.00025 µM; days in culture: 122

Going from `CC(C)(C(=O)NCC(F)(F)C(F)(F)F)C(=O)N[C@@H]1C(=O)Nc2ccccc2-c2ccccc21` to `O=C(/C=C/c1cccnc1)NCCCCC1CCN(C(=O)c2ccccc2)CC1` [FK866], the “CTG-3D luminescence at 96 h” value rises from 1.94 to 2.32.

Compared with `CCN(c1cc(C#CCN2CCOCC2)cc(C(=O)NCc2c(C)cc(C)[nH]c2=O)c1C)[C@H]1CC[C@H](N(C)CCOC)CC1`, `CCc1c2c(nc3ccc(O)cc13)-c1cc3c(c(=O)n1C2)COC(=O)[C@]3(O)CC` [SN-38] is higher in “CTG-3D luminescence at 96 h” value: 2.29 for the first, 2.39 for the second.

Compared with `NC(=O)Nc1cc(-c2cccc(F)c2)sc1C(=O)N[C@H]1CCCNC1` [AZD7762], `C=CCn1c(=O)c2cnc(Nc3ccc(N4CCN(C)CC4)cc3)nc2n1-c1cccc(C(C)(C)O)n1` [adavosertib] is lower in “CTG-3D luminescence at 96 h” value: 2.38 for the first, 2.07 for the second.

For `CCN1CCN(Cc2ccc(Nc3ncc(F)c(-c4cc(F)c5nc(C)n(C(C)C)c5c4)n3)nc2)CC1` [abemaciclib], the “CTG-3D luminescence at 96 h” value was 2.43.

same assay, conditions: 0.00025 µM; days in culture: 163

Compared with `CC(C)(C(=O)NCC(F)(F)C(F)(F)F)C(=O)N[C@@H]1C(=O)Nc2ccccc2-c2ccccc21`, `O=C(/C=C/c1cccnc1)NCCCCC1CCN(C(=O)c2ccccc2)CC1` [FK866] is higher in “CTG-3D luminescence at 96 h” value: 2.11 for the first, 2.21 for the second.

Compared with `CCN(c1cc(C#CCN2CCOCC2)cc(C(=O)NCc2c(C)cc(C)[nH]c2=O)c1C)[C@H]1CC[C@H](N(C)CCOC)CC1`, `CCc1c2c(nc3ccc(O)cc13)-c1cc3c(c(=O)n1C2)COC(=O)[C@]3(O)CC` [SN-38] is lower in “CTG-3D luminescence at 96 h” value: 2.26 for the first, 1.76 for the second.

First: NC(=O)Nc1cc(-c2cccc(F)c2)sc1C(=O)N[C@H]1CCCNC1 [AZD7762]
Second: C=CCn1c(=O)c2cnc(Nc3ccc(N4CCN(C)CC4)cc3)nc2n1-c1cccc(C(C)(C)O)n1 [adavosertib]
The “CTG-3D luminescence at 96 h” value of the first is lower: 1.96 for the first, 2.21 for the second.

`CCN1CCN(Cc2ccc(Nc3ncc(F)c(-c4cc(F)c5nc(C)n(C(C)C)c5c4)n3)nc2)CC1` [abemaciclib] was tested, and the “CTG-3D luminescence at 96 h” value was 2.01.

same assay, conditions: 0.005 µM; days in culture: 105

Going from `CC(C)(C(=O)NCC(F)(F)C(F)(F)F)C(=O)N[C@@H]1C(=O)Nc2ccccc2-c2ccccc21` to `O=C(/C=C/c1cccnc1)NCCCCC1CCN(C(=O)c2ccccc2)CC1` [FK866], the “CTG-3D luminescence at 96 h” value falls from 0.962 to 0.265.

First: CCN(c1cc(C#CCN2CCOCC2)cc(C(=O)NCc2c(C)cc(C)[nH]c2=O)c1C)[C@H]1CC[C@H](N(C)CCOC)CC1
Second: CCc1c2c(nc3ccc(O)cc13)-c1cc3c(c(=O)n1C2)COC(=O)[C@]3(O)CC [SN-38]
The “CTG-3D luminescence at 96 h” value of the first is higher: 1.27 for the first, 1.1 for the second.

Compared with `NC(=O)Nc1cc(-c2cccc(F)c2)sc1C(=O)N[C@H]1CCCNC1` [AZD7762], `C=CCn1c(=O)c2cnc(Nc3ccc(N4CCN(C)CC4)cc3)nc2n1-c1cccc(C(C)(C)O)n1` [adavosertib] is lower in “CTG-3D luminescence at 96 h” value: 1.42 for the first, 1.14 for the second.

With `CCN1CCN(Cc2ccc(Nc3ncc(F)c(-c4cc(F)c5nc(C)n(C(C)C)c5c4)n3)nc2)CC1` [abemaciclib] the “CTG-3D luminescence at 96 h” value was 1.28.

same assay, conditions: 0.005 µM; days in culture: 122

First: CC(C)(C(=O)NCC(F)(F)C(F)(F)F)C(=O)N[C@@H]1C(=O)Nc2ccccc2-c2ccccc21
Second: O=C(/C=C/c1cccnc1)NCCCCC1CCN(C(=O)c2ccccc2)CC1 [FK866]
The “CTG-3D luminescence at 96 h” value of the first is higher: 1.8 for the first, 0.648 for the second.

First: CCN(c1cc(C#CCN2CCOCC2)cc(C(=O)NCc2c(C)cc(C)[nH]c2=O)c1C)[C@H]1CC[C@H](N(C)CCOC)CC1
Second: CCc1c2c(nc3ccc(O)cc13)-c1cc3c(c(=O)n1C2)COC(=O)[C@]3(O)CC [SN-38]
The “CTG-3D luminescence at 96 h” value of the first is higher: 2.04 for the first, 1.58 for the second.

First: NC(=O)Nc1cc(-c2cccc(F)c2)sc1C(=O)N[C@H]1CCCNC1 [AZD7762]
Second: C=CCn1c(=O)c2cnc(Nc3ccc(N4CCN(C)CC4)cc3)nc2n1-c1cccc(C(C)(C)O)n1 [adavosertib]
The “CTG-3D luminescence at 96 h” value of the first is lower: 1.93 for the first, 1.99 for the second.

In the case of `CCN1CCN(Cc2ccc(Nc3ncc(F)c(-c4cc(F)c5nc(C)n(C(C)C)c5c4)n3)nc2)CC1` [abemaciclib], the “CTG-3D luminescence at 96 h” value was 1.7.

same assay, conditions: 0.005 µM; days in culture: 163

Compared with `CC(C)(C(=O)NCC(F)(F)C(F)(F)F)C(=O)N[C@@H]1C(=O)Nc2ccccc2-c2ccccc21`, `O=C(/C=C/c1cccnc1)NCCCCC1CCN(C(=O)c2ccccc2)CC1` [FK866] is lower in “CTG-3D luminescence at 96 h” value: 1.38 for the first, 0.305 for the second.

First: CCN(c1cc(C#CCN2CCOCC2)cc(C(=O)NCc2c(C)cc(C)[nH]c2=O)c1C)[C@H]1CC[C@H](N(C)CCOC)CC1
Second: CCc1c2c(nc3ccc(O)cc13)-c1cc3c(c(=O)n1C2)COC(=O)[C@]3(O)CC [SN-38]
The “CTG-3D luminescence at 96 h” value of the first is higher: 1.77 for the first, 1.18 for the second.

First: NC(=O)Nc1cc(-c2cccc(F)c2)sc1C(=O)N[C@H]1CCCNC1 [AZD7762]
Second: C=CCn1c(=O)c2cnc(Nc3ccc(N4CCN(C)CC4)cc3)nc2n1-c1cccc(C(C)(C)O)n1 [adavosertib]
The “CTG-3D luminescence at 96 h” value of the first is higher: 2.02 for the first, 1.86 for the second.

`CCN1CCN(Cc2ccc(Nc3ncc(F)c(-c4cc(F)c5nc(C)n(C(C)C)c5c4)n3)nc2)CC1` [abemaciclib] was tested, and the “CTG-3D luminescence at 96 h” value was 1.71.

same assay, conditions: 0.1 µM; days in culture: 105

First: CC(C)(C(=O)NCC(F)(F)C(F)(F)F)C(=O)N[C@@H]1C(=O)Nc2ccccc2-c2ccccc21
Second: O=C(/C=C/c1cccnc1)NCCCCC1CCN(C(=O)c2ccccc2)CC1 [FK866]
The “CTG-3D luminescence at 96 h” value of the first is higher: 1.85 for the first, 0.2 for the second.

Going from `CCN(c1cc(C#CCN2CCOCC2)cc(C(=O)NCc2c(C)cc(C)[nH]c2=O)c1C)[C@H]1CC[C@H](N(C)CCOC)CC1` to `CCc1c2c(nc3ccc(O)cc13)-c1cc3c(c(=O)n1C2)COC(=O)[C@]3(O)CC` [SN-38], the “CTG-3D luminescence at 96 h” value falls from 1.53 to 0.734.

First: NC(=O)Nc1cc(-c2cccc(F)c2)sc1C(=O)N[C@H]1CCCNC1 [AZD7762]
Second: C=CCn1c(=O)c2cnc(Nc3ccc(N4CCN(C)CC4)cc3)nc2n1-c1cccc(C(C)(C)O)n1 [adavosertib]
The “CTG-3D luminescence at 96 h” value of the first is lower: 0.635 for the first, 1.44 for the second.

With `CCN1CCN(Cc2ccc(Nc3ncc(F)c(-c4cc(F)c5nc(C)n(C(C)C)c5c4)n3)nc2)CC1` [abemaciclib] the “CTG-3D luminescence at 96 h” value was 1.48.

same assay, conditions: 0.1 µM; days in culture: 122

Compared with `CC(C)(C(=O)NCC(F)(F)C(F)(F)F)C(=O)N[C@@H]1C(=O)Nc2ccccc2-c2ccccc21`, `O=C(/C=C/c1cccnc1)NCCCCC1CCN(C(=O)c2ccccc2)CC1` [FK866] is lower in “CTG-3D luminescence at 96 h” value: 1.67 for the first, 0.179 for the second.

Compared with `CCN(c1cc(C#CCN2CCOCC2)cc(C(=O)NCc2c(C)cc(C)[nH]c2=O)c1C)[C@H]1CC[C@H](N(C)CCOC)CC1`, `CCc1c2c(nc3ccc(O)cc13)-c1cc3c(c(=O)n1C2)COC(=O)[C@]3(O)CC` [SN-38] is lower in “CTG-3D luminescence at 96 h” value: 1.85 for the first, 0.768 for the second.

First: NC(=O)Nc1cc(-c2cccc(F)c2)sc1C(=O)N[C@H]1CCCNC1 [AZD7762]
Second: C=CCn1c(=O)c2cnc(Nc3ccc(N4CCN(C)CC4)cc3)nc2n1-c1cccc(C(C)(C)O)n1 [adavosertib]
The “CTG-3D luminescence at 96 h” value of the first is lower: 0.853 for the first, 2.01 for the second.

`CCN1CCN(Cc2ccc(Nc3ncc(F)c(-c4cc(F)c5nc(C)n(C(C)C)c5c4)n3)nc2)CC1` [abemaciclib] was tested, and the “CTG-3D luminescence at 96 h” value was 1.89.

same assay, conditions: 0.1 µM; days in culture: 163

Compared with `CC(C)(C(=O)NCC(F)(F)C(F)(F)F)C(=O)N[C@@H]1C(=O)Nc2ccccc2-c2ccccc21`, `O=C(/C=C/c1cccnc1)NCCCCC1CCN(C(=O)c2ccccc2)CC1` [FK866] is lower in “CTG-3D luminescence at 96 h” value: 2.27 for the first, 0.221 for the second.

Compared with `CCN(c1cc(C#CCN2CCOCC2)cc(C(=O)NCc2c(C)cc(C)[nH]c2=O)c1C)[C@H]1CC[C@H](N(C)CCOC)CC1`, `CCc1c2c(nc3ccc(O)cc13)-c1cc3c(c(=O)n1C2)COC(=O)[C@]3(O)CC` [SN-38] is lower in “CTG-3D luminescence at 96 h” value: 2.62 for the first, 0.824 for the second.

Going from `NC(=O)Nc1cc(-c2cccc(F)c2)sc1C(=O)N[C@H]1CCCNC1` [AZD7762] to `C=CCn1c(=O)c2cnc(Nc3ccc(N4CCN(C)CC4)cc3)nc2n1-c1cccc(C(C)(C)O)n1` [adavosertib], the “CTG-3D luminescence at 96 h” value rises from 1.27 to 2.44.

`CCN1CCN(Cc2ccc(Nc3ncc(F)c(-c4cc(F)c5nc(C)n(C(C)C)c5c4)n3)nc2)CC1` [abemaciclib] was tested, and the “CTG-3D luminescence at 96 h” value was 2.45.
